These results are taken from patent US20080125432A1 (Devgen NV, priority 2004, published 2008).

SMILES strings stand for the structures.

The target of this assay is T1, IK1 (Kir2.1) (Homo sapiens, UniProt P63252).
T1 construct: endogenous in cells; host or cells: freshly isolated human atrial myocytes
T1 sequence (P63252 1-427): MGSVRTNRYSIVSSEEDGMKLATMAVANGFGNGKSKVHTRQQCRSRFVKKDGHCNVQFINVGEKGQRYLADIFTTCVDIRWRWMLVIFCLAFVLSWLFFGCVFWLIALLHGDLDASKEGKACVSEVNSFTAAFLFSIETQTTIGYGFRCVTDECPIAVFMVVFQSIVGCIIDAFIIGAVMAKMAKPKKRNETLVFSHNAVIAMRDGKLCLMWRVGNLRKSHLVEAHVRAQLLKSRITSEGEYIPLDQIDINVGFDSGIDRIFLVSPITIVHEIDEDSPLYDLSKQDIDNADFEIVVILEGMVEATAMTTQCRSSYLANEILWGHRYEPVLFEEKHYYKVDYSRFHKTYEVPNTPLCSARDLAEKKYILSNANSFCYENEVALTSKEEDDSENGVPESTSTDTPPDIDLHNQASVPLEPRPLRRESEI
The experiment in a line: Whole-cell patch clamp in human atrial myocytes: IK1. In kind it is cell-based. The conditions noted are these: n = 3 cells. On the procedure: The blocking profile of the compounds of the invention is determined on the following channels of the human atrial myocytes: INa, Ito, Isus and IK1 channel currents.
Human atrial myocytes: Myocytes were prepared from specimens with grossly normal anatomical aspect, excised from hearts of patients with normal P-wave electrocardiogram, undergoing bypass surgery. Human atrial sample were obtained following approval by the ethical committee. […]
Experiments were performed at room temperature (20-25° C.) for INa and at 32-34° C. for Ito, Isus, IK1. Currents were measured using the whole-cell variant of the patch clamp method. […]
After rupture of the cell membrane to enter the whole-cell mode, current amplitude and kinetics were allowed to stabilize for 3-7 min before initiating the experimental procedure. K^+ currents recorded from human atrial myocytes were elicited by a 500 ms pulse to +60 mV from a holding potential of −50 mV for Ito and Isus. Ito was measured as a peak current amplitude whereas Isus as a current present at the end of the 500 ms voltage pulse. In addition, the area under the curve, before and after compound, were measured over the course of the pulse period. […]
In general terms: The patch-clamp technique gives a direct electrical read-out from membranes.

As to `COc1ccccc1Nc1nc(C)c(C(=O)N[C@H]2CCC[C@@H]2OCc2ccccc2)s1` [Compound 68, 2-(2-methoxy-phenylamino)-4-methyl-thiazole-5-carboxylic acid (1S,2S)-2-(benzyloxycyclopent-1-yl) amide], the “Block at 10 μM in %: IK1 (Kir2.1)” value is −2.7 ± 2.0%.
